In patent US20230255205A1, “HERBICIDAL HETEROCYCLIC DERIVATIVES” (MoA Technology Limited, priority 2020, published 2023):

Assays:
Type in all cases: in vivo
[1] = tested on: Veronica persica (VERPE); assay: Pre-emergence herbicidal test, % visual injury; conditions: 336 h, rate 1000 g/ha, 14±1 days post-emergence in untreated plots
Protocol: (§1) Pre-emergence testing was also performed using the same test species grown in a sandy loam soil mixture, Lolium multiflorum (LOLMU), Amaranthus retroflexus (AMARE), Echinochloa crus-galli (ECHCG), Veronica persica (VERPE).
(§2) After sowing, at growth stage BBCH 00-07 (pre-emergence), the plants are sprayed with an aqueous spray solution derived from the formulation of the technical active ingredient in acetone/water (50:50) solution containing 0.5% Tween 20 (polyoxyethlyene sorbitan monolaureate, GAS RN 9005-64-5). The test compounds are applied at the required […] concentration of active ingredient in g/ha. The test plants are then grown in a glasshouse under controlled environmental conditions and watered regularly as required. After 14±1 days post-emergence in untreated plots (for the pre-emergence test), the test is evaluated by assessing the percentage damage caused to the plants in comparison with the untreated plots. The biological activities for pre-emergence testing are shown below (Table 4) in the following table as a % visual injury.

[2] = tested on: Lolium multiflorum (LOLMU); assay: Pre-emergence herbicidal test, % visual injury; conditions: 336 h, rate 1000 g/ha, 14±1 days post-emergence in untreated plots
Protocol: as §1, §2

[3] = tested on: Echinochloa crus-galli (ECHCG); assay: Pre-emergence herbicidal test, % visual injury; conditions: 336 h, rate 1000 g/ha, 14±1 days post-emergence in untreated plots
Protocol: as §1, §2

[4] = tested on: Amaranthus retroflexus (AMARE); assay: Post-emergence herbicidal test, % visual injury; conditions: 336 h, 14±1 days post application; for pest or weed control at 500 g/ha: rate 500 g/ha; for pest or weed control at 1000 g/ha: rate 1000 g/ha; for pest or weed control at 250 g/ha: rate 250 g/ha
Protocol: (§3) Seeds of a variety of test species are grown in a sandy loam soil mixture, Lolium multiflorum (LOLMU), Amaranthus retroflexus (AMARE), Echinochloa crus-galli (ECHCG), Veronica persica (VERPE).
(§4) After sowing, at growth stage BBCH 12-14 (post-emergence), the plants are sprayed with an aqueous spray solution derived from the formulation of the technical active ingredient in acetone/water (50:50) solution containing 0.5% Tween 20 (polyoxyethlyene sorbitan monolaureate, CAS RN 9005-64-5). The test compounds are applied at the required concentration of active ingredient in g/ha. The test plants are then grown in a glasshouse under controlled environmental conditions and watered regularly as required. After 14±1 days post application (for post-emergence test), the test is evaluated by assessing the percentage damage caused to the plants in comparison with the untreated plots. The biological activities for post-emergence testing are shown below (Table 3) as a % visual injury.

[5] = tested on: Veronica persica (VERPE); assay: Post-emergence herbicidal test, % visual injury; conditions: 336 h, 14±1 days post application; for pest or weed control at 500 g/ha: rate 500 g/ha; for pest or weed control at 1000 g/ha: rate 1000 g/ha; for pest or weed control at 250 g/ha: rate 250 g/ha
Protocol: as §3, §4

[6] = tested on: Lolium multiflorum (LOLMU); assay: Post-emergence herbicidal test, % visual injury; conditions: 336 h, 14±1 days post application; for pest or weed control at 500 g/ha: rate 500 g/ha; for pest or weed control at 1000 g/ha: rate 1000 g/ha; for pest or weed control at 250 g/ha: rate 250 g/ha
Protocol: as §3, §4

[7] = tested on: Echinochloa crus-galli (ECHCG); assay: Post-emergence herbicidal test, % visual injury; conditions: 336 h, 14±1 days post application; for pest or weed control at 500 g/ha: rate 500 g/ha; for pest or weed control at 1000 g/ha: rate 1000 g/ha; for pest or weed control at 250 g/ha: rate 250 g/ha
Protocol: as §3, §4

[8] = tested on: Amaranthus retroflexus (AMARE); assay: Pre-emergence herbicidal test, % visual injury; conditions: rate 1000 g/ha, 14±1 days post-emergence in untreated plots
Protocol: as §1, §2

[9] = tested on: Amaranthus retroflexus (AMARE); assay: Comparative tests against non-claimed structural analogues, % visual injury; conditions: rate 125 g/ha
Protocol: (§5) Selected compounds of the invention were also assessed in comparative tests (Table 5) against structural analogues not according to the invention (e.g. a compound containing an imidazole and one containing an oxazole, neither of which fall within the scope of the claimed invention). In each test, compounds were applied at a rate of 125 g/ha. Test 1 compared the efficacy of a compound of the invention (93) with a non-claimed structure which contains an unsubstituted triazole (105). […] Test 2 compared the efficacy of compound 93 with compound 104, which contains an imidazole and is therefore not according to the invention. […] Test 3 compared the efficacy of compound 43, a further compound according to the invention, with compound 103, which contains an oxazole not according to the invention.

[10] = tested on: Veronica persica (VERPE); assay: as above; conditions: rate 125 g/ha
Protocol: as §5

[11] = tested on: Lolium multiflorum (LOLMU); assay: as above; conditions: rate 125 g/ha
Protocol: as §5

[12] = tested on: Echinochloa crus-galli (ECHCG); assay: as above; conditions: rate 125 g/ha
Protocol: as §5

Cn1nnnc1NC(=O)COc1ccc(F)cc1Cl [Compound 25]
pest or weed control at 1000 g/ha [1]: 10%
pest or weed control at 1000 g/ha [2]: 0%
pest or weed control at 1000 g/ha [3]: 10%
pest or weed control at 500 g/ha [4]: 40%
pest or weed control at 500 g/ha [5]: 70%
pest or weed control at 500 g/ha [6]: 70%
pest or weed control at 500 g/ha [7]: 0%

Cc1nnc(NC(=O)COc2ccc(F)cc2Cl)o1 [Compound 26]
pest or weed control at 1000 g/ha [1]: 0%
pest or weed control at 1000 g/ha [2]: 50%
pest or weed control at 1000 g/ha [3]: 30%
pest or weed control at 500 g/ha [4]: 90%
pest or weed control at 500 g/ha [5]: 95%
pest or weed control at 500 g/ha [6]: 50%
pest or weed control at 500 g/ha [7]: 90%

O=C(CCCOc1ccc(Cl)cc1Cl)Nc1nnc(C(F)(F)F)[nH]1 [Compound 28, 4-(2,4-dichlorophenoxy)-N-[5-(trifluoromethyl)-4H-1,2,4-triazol-3-yl]butanamide]
pest or weed control at 1000 g/ha [1]: 0%
pest or weed control at 1000 g/ha [2]: 40%
pest or weed control at 1000 g/ha [3]: 0%
pest or weed control at 500 g/ha [4]: 70%
pest or weed control at 500 g/ha [5]: 60%
pest or weed control at 500 g/ha [6]: 0%
pest or weed control at 500 g/ha [7]: 10%

Cc1cc(Cl)ccc1OCCCC(=O)Nc1nnc(C(F)(F)F)[nH]1 [Compound 29]
pest or weed control at 1000 g/ha [1]: 0%
pest or weed control at 1000 g/ha [2]: 20%
pest or weed control at 1000 g/ha [3]: 0%
pest or weed control at 500 g/ha [4]: 60%
pest or weed control at 500 g/ha [5]: 80%
pest or weed control at 500 g/ha [6]: 60%
pest or weed control at 500 g/ha [7]: 0%

O=C(CCCOc1ccc(F)cc1Cl)Nc1nnc(C(F)(F)F)[nH]1 [Compound 30, 4-(2-chloro-4-fluorophenoxy)-N-[5-(trifluoromethyl)-4H-1,2,4-triazol-3-yl]butanamide]
pest or weed control at 1000 g/ha [1]: 0%
pest or weed control at 1000 g/ha [2]: 60%
pest or weed control at 1000 g/ha [3]: 0%
pest or weed control at 500 g/ha [4]: 80%
pest or weed control at 500 g/ha [5]: 60%
pest or weed control at 500 g/ha [6]: 70%
pest or weed control at 500 g/ha [7]: 30%

CC(Oc1ccc(F)cc1Cl)C(=O)Nc1nnc(C(F)(F)F)[nH]1 (stereo not drawn) [Compound 32]
pest or weed control at 1000 g/ha [1]: 5%
pest or weed control at 1000 g/ha [2]: 0%
pest or weed control at 1000 g/ha [3]: 0%

Cc1cc(Cl)ccc1OCC(=O)Nc1nnc(C(F)(F)F)[nH]1 [Compound 35]
AMARE % visual Injury [8]: 20%
pest or weed control at 1000 g/ha [1]: 0%
pest or weed control at 1000 g/ha [2]: 0%
pest or weed control at 1000 g/ha [3]: 80%
pest or weed control at 1000 g/ha [4]: 80%
pest or weed control at 1000 g/ha [5]: 60%
pest or weed control at 1000 g/ha [6]: 20%
pest or weed control at 1000 g/ha [7]: 30%

O=C(COc1ccc(Cl)cc1Cl)Nc1nnc(C(F)(F)F)[nH]1 [Compound 36]
AMARE % visual Injury [8]: 40%
pest or weed control at 1000 g/ha [1]: 0%
pest or weed control at 1000 g/ha [2]: 0%
pest or weed control at 1000 g/ha [3]: 40%
pest or weed control at 1000 g/ha [4]: 99%
pest or weed control at 1000 g/ha [5]: 98%
pest or weed control at 1000 g/ha [6]: 40%
pest or weed control at 1000 g/ha [7]: 30%

O=C(COc1ccc(F)cc1Cl)Nc1nnc(C(F)(F)F)o1 [Compound 43]
AMARE % visual Injury [9]: 70%
VERPE % visual Injury [10]: 70%
LOLMU % visual Injury [11]: 50%
ECHCG % visual Injury [12]: 30%

Cn1ccc2c(OCC(=O)Nc3nc(C(F)(F)F)n[nH]3)cccc21 [Compound 91]
pest or weed control at 500 g/ha [4]: 0%
pest or weed control at 500 g/ha [5]: 70%
pest or weed control at 500 g/ha [6]: 0%
pest or weed control at 500 g/ha [7]: 0%

O=C(COc1ccccc1-n1cnnc1)Nc1nc(C(F)(F)F)n[nH]1 [Compound 92]
pest or weed control at 500 g/ha [4]: 0%
pest or weed control at 500 g/ha [5]: 70%
pest or weed control at 500 g/ha [6]: 0%
pest or weed control at 500 g/ha [7]: 0%

O=C(COc1ccc(F)cc1Cl)Nc1nnc(C(F)(F)F)[nH]1 [Compound 93]
AMARE % visual Injury [9]: 60%
VERPE % visual Injury [10]: 80%
LOLMU % visual Injury [11]: 20%
ECHCG % visual Injury [12]: 30%
pest or weed control at 500 g/ha [4]: 100%
pest or weed control at 500 g/ha [5]: 90%
pest or weed control at 500 g/ha [6]: 70%
pest or weed control at 500 g/ha [7]: 80%

O=C(COc1ccc(Cl)cc1Cl)Nc1nnc(-c2ccc(F)cc2)[nH]1 [Compound 96]
pest or weed control at 500 g/ha [4]: 90%
pest or weed control at 500 g/ha [5]: 90%
pest or weed control at 500 g/ha [6]: 0%
pest or weed control at 500 g/ha [7]: 30%

O=C(COc1ccc(Cl)cc1Cl)Nc1nnc(C(F)(F)F)o1 [Compound 97]
pest or weed control at 125 g/ha ([4]; rate 125 g/ha): 100%
pest or weed control at 125 g/ha ([5]; rate 125 g/ha): 100%
pest or weed control at 125 g/ha ([6]; rate 125 g/ha): 0%
pest or weed control at 125 g/ha ([7]; rate 125 g/ha): 0%

CC(Oc1cccc(Cl)c1)C(=O)Nc1nnn[nH]1 (stereo not drawn) [Compound 98]
pest or weed control at 250 g/ha [4]: 0%
pest or weed control at 250 g/ha [5]: 20%
pest or weed control at 250 g/ha [6]: 10%
pest or weed control at 250 g/ha [7]: 0%

COc1nnc(NC(=O)COc2ccc(F)cc2Cl)[nH]1 [Compound 99]
pest or weed control at 250 g/ha [4]: 50%
pest or weed control at 250 g/ha [5]: 50%
pest or weed control at 250 g/ha [6]: 0%
pest or weed control at 250 g/ha [7]: 0%

Cc1cccc(C)c1OCC(=O)Nc1nnc(C(F)(F)F)[nH]1 [Compound 100]
pest or weed control at 500 g/ha [4]: 0%
pest or weed control at 500 g/ha [5]: 20%
pest or weed control at 500 g/ha [6]: 0%
pest or weed control at 500 g/ha [7]: 0%

O=C(COc1ccc(F)cc1Cl)Nc1nnc(-c2cccc3ccccc23)[nH]1 [Compound 101]
pest or weed control at 500 g/ha [4]: 100%
pest or weed control at 500 g/ha [5]: 80%
pest or weed control at 500 g/ha [6]: 20%
pest or weed control at 500 g/ha [7]: 70%

CCn1cnnc1NC(=O)COc1cccc(C(F)(F)F)c1 [Compound 102]
pest or weed control at 500 g/ha [4]: 50%
pest or weed control at 500 g/ha [5]: 7%
pest or weed control at 500 g/ha [6]: 0%
pest or weed control at 500 g/ha [7]: 70%

O=C(COc1ccc(F)cc1Cl)Nc1ncc(C(F)(F)F)o1 [Compound 103]
AMARE % visual Injury [9]: 50%
VERPE % visual Injury [10]: 50%
LOLMU % visual Injury [11]: 20%
ECHCG % visual Injury [12]: 30%

O=C(COc1ccc(F)cc1Cl)Nc1ncc(C(F)(F)F)[nH]1 [Compound 104]
AMARE % visual Injury [9]: 40%
VERPE % visual Injury [10]: 70%
LOLMU % visual Injury [11]: 10%
ECHCG % visual Injury [12]: 30%

O=C(COc1ccc(F)cc1Cl)Nc1nnc[nH]1 [Compound 105]
AMARE % visual Injury [9]: 50%
VERPE % visual Injury [10]: 40%
LOLMU % visual Injury [11]: 0%
ECHCG % visual Injury [12]: 20%
